# Reference: patent publication US11660281B2, “Compositions and methods of treating or preventing fibrotic lung diseases” (YALE UNIVERSITY, priority 2017, dated 2023)
# Legend:
# [1] = tested on: bleomycin induced lung fibrosis; test: bleomycin-induced established lung fibrosis in mice: fibrosis and Masson's Trichrome histology; assay type: in vivo, mice (C57/BL6); conditions: for collagen deposition in the interstitium, peribronchiolar, or perivascular space (Masson's Trichrome staining): days 10-18 after bleomycin, day 21 lung sections; for established fibrosis in bleomycin induced lung fibrosis: days 10-18 after intratracheal bleomycin 1.5 U/kg, sacrifice day 21
# Description: (§1) C57B1/6, 9-12 weeks-old, female mice were purchased from Taconic Lab. Mice were anesthetized by placing them in a chamber having paper towels soaked with 40% isoflurane solution. 1.5 U/kg of bleomycin (Hospira, Ill.) or equivalent volume (50 μl) of 0.9% normal saline was administered intratracheally. To test therapeutic efficacy in bleomycin-induced established fibrosis intraperitoneal thyroid hormone receptor beta agonist (GC-1, 30 μg/kg) was administered at days 10, 12, 14, 16 and 18 following bleomycin-administration and mice were sacrificed at day 21. The lungs were harvested for fibrotic assays
# Hydroxyproline: Lung hydroxyproline was analyzed with hydroxyproline colorimetric assay kit from Biovision (Milpitas, Calif.) following manufacturer's instruction.
# Histology: Tissue sections (4 μm) were stained with Masson Trichrome (collagen/connective tissue), two slices per animal, and two animals per group.
# FIG. 1 illustrates an experiment where mice with bleomycin-induced fibrosis were treated with GC-1 intraperitoneally. On Day 0, bleomycin was delivered intratracheally to the mice (1.5 U/kg). On days 10-18, the mice were administered 30 μg/kg of GC-1 (200 μl) or equivalent volume of vehicle (normal saline 0.9%).
# 9-12 weeks-old, C57/BL6 female mice were treated every other day intraperitoneally with thyroid hormone agonist GC-1 (30 μg/kg) or equivalent volume of empty vehicle (200 μl of normal saline 0.9%) at days 10-18, following intratracheal challenge with bleomycin (1.5 U/kg) or normal saline 0.9%. Mice were sacrificed at day 21. […] Data are expressed as mean hydroxyproline content per lung set (μg/gr lung)+SEM, n=8 mice/group, *p<0.05. FIGS. 2A-2D illustrate quantitative RT-PCR analysis of Col1a1, Col3a1, and FSP1 relative expression in the bleomycin model of lung fibrosis. Bars (means±SEM) are shown for the relative changes (fold) by setting the indicated control level to 1.0, *p<0.05. […]
# 9-12 weeks-old, C57/BL6 female mice were treated every other day orally by gavage with thyroid hormone receptor agonist GC-1 (5 mg/kg) or equivalent volume of empty vehicle (200 μl of normal saline 0.9%) at days 10-18 following intratracheal challenge with bleomycin (1.5 U/kg) or normal saline 0.9%. […] FIG. 5A: Hydroxyproline level in mice was assessed. Data are expressed as mean hydroxyproline content per lung set (μg/gr lung)+SEM, n=8 mice/group, *p<0.05. FIGS. 5B-5F illustrate quantitative RT-PCR analysis of Col1a1 (collagen, type I, alpha 1), Col3a1 (collagen, type III, alpha 1), FSP1 (fibroblast-specific protein 1), Acta (alpha-actin-2), and Ppargc1a (peroxisome proliferator-activated receptor gamma coactivator 1-alpha) relative expression in the bleomycin model of lung fibrosis. […]
# [2] = tested on: Ppargc1a, Thra and Thrb expression in bleomycin induced mouse lungs; test: quantitative RT-PCR of relative gene expression in lungs, bleomycin model of lung fibrosis; assay type: in vivo, mice (C57/BL6); conditions: GC-1 30 μg/kg intraperitoneally every other day, days 10-18 after bleomycin; lungs at day 21; FIGS. 3A-3C
# Description: as §1
# qRT-PCR assay: Gene expression was determined by TaqMan® (Life Technologies, Thermo Scientific Inc. Rockford Ill., USA) according to manufacturer's instruction. β-glucuronidase (Gusb) was employed as an internal standard control and the specific primers and probes were all obtained from Life Technologies (Thermo Scientific Inc. Rockford Ill., USA). […]
# 9-12 weeks-old, C57/BL6 female mice were treated every other day intraperitoneally with thyroid hormone receptor beta agonist GC-1 (30 μg/kg) or equivalent volume of empty vehicle (200 μl of normal saline 0.9%) at days 10-18 following intratracheal challenge with bleomycin (1.5 U/kg) or normal saline 0.9%. […] FIGS. 3A-3C illustrate quantitative RT-PCR analysis of Ppargc1a, Thra and Thrb relative expression in the bleomycin model of lung fibrosis. […]
compound,measurement,setting,value
"Cc1cc(OCC(=O)O)cc(C)c1Cc1ccc(O)c(C(C)C)c1 [GC-1, 2-(4-(4-hydroxy-3-isopropylbenzyl)-3,5-dimethylphenoxy)acetic acid]","collagen deposition in the interstitium, peribronchiolar, or perivascular space (Masson's Trichrome staining)","[1]; GC-1 30 μg/kg intraperitoneally every other day, FIG. 2E",significant decrease in collagen deposition
same,established fibrosis in bleomycin induced lung fibrosis,"[1]; GC-1 30 μg/kg intraperitoneally every other day, FIGS. 2A-2E",blunt established fibrosis
same,"collagen deposition in the interstitium, peribronchiolar, or perivascular space (Masson's Trichrome staining)",[1]; GC-1 5 mg/kg orally by gavage every other day,significant decrease in collagen deposition
same,established fibrosis in bleomycin induced lung fibrosis,"[1]; GC-1 5 mg/kg orally by gavage every other day, FIGS. 5A-5G",blunt established fibrosis
same,Ppargc1a relative expression (qRT-PCR),[2],regulates expression
